Measurements from publication PMC6272295, “In Vitro Neuroprotective Activities of Compounds from Angelica shikokiana Makino” (Molecules, 2015).
Read-outs that look alike come from different tables or passages of the source.

Assays:
[1] = Scavenging of hydroxyl radical, 2-deoxyribose degradation assay; conditions: for % Inhibition of deoxyribose degradation, Site-Specific / % Inhibition of deoxyribose degradation, Non Site-Specific: 300 µM; for % Inhibition of deoxyribose degradation, Non Site-Specific: 25 min, pH 7.4
Procedure: The inhibitory effect of bioactive compounds on deoxyribose degradation was determined by measuring the competition between deoxyribose and bioactive compounds for the hydroxyl radicals (^.OH) generated from the Fe^3+/ascorbate/EDTA/H2O2 system (referred to non-site-specific assay; the major activity measured is ^.OH scavenging) or an Fe^3+/ascorbate/H2O2 system (referred to as a site-specific assay; major activity measured is metal chelation). Both assays depend on the formation of a highly reactive hydroxyl radical, OH, by the interaction of iron ions with H2O2 through Fenton’s reaction. […] This assay was performed as previously described. Different concentrations of tested compounds were dissolved in 400 µL phosphate buffer (0.2 M, pH 7.4). Then, 50 µL of deoxyribose (60 mM), 50 µL of Na2EDTA (2 mM), 50 µL of FeCl3 (3.2 mM), 50 µL of H2O2 (60 mM) and 50 µL of ascorbic acid (2 mM) were added, and the total volume of the reaction mixture was adjusted to 1 mL with buffer. After water-bath incubation at 50 °C for 25 min, the reaction was terminated by 250 µL of trichloroacetic acid (10%, w/w). […] For site-specific hydroxyl-radical-scavenging activity, the reaction mixture was similar to the above method, except that EDTA was replaced by an equivalent volume of buffer.
IC50 values of isolated compounds in AChEI and scavenging of hydroxyl radical assays were calculated using Probit Analysis (SPSS Version 16.0 for Windows, SPSS Inc., Chicago, IL, USA) for five different concentrations in three independent experiments. Cell viability was expressed as a percentage of MTT reduction, assuming that the viability of cells treated with 1% DMSO as a negative control was 100%. […] All values are the mean ± SD of three independent experiments. Data were analyzed for statistical significance using one-way ANOVA, followed by Dunnet’s test as a post-hoc test with GraphPad Prism 5.0 software for Windows (Inc., San Diego, CA, USA).

[2] = biological target: T1, AChE from Electrophorus electricus (Electrophorus electricus, UniProt O42275); assay: biochemical
T1 construct: purchased Sigma (St. Louis, MO, USA)
Procedure: AChEI activity was measured using Ellman’s method. AChE hydrolyzes the substrate ACTI into acetate and thiocholine. In a neutral and alkaline medium; thiocholine reacts with DTNB to give yellow colored 2-nitro-5-thiobenzoate, which can be detected spectrophotometrically at 405 nm. Briefly, in a 96-well plate, 25 µL of 15 mM ACTI, 125 µL of 3 mM DTNB in buffer B (50 mM Tris HCl, pH = 8, 0.1 M NaCl, 0.02 M MgCl2·6H2O), 50 µL of buffer A (50 mM Tris-HCl, PH 8, 0.1% BSA) and 25 µL of tested sample (dissolved in 25% DMSO) were mixed, and the absorbance was measured using a microplate reader (Biotek, Winooski, VT, USA) at 405 nm every 16 s ten times. Then, 25 µL of AChE (0.25 U/mL in buffer A) was added and the absorbance was measured ten times every 16 s. A solution of 25% DMSO was used as a negative control. Absorbance was plotted against time and enzyme activity was calculated from the slope of the line so obtained and expressed as a percentage compared to an assay using a buffer without any inhibitor. Fractions were tested at 400 µg/mL. To avoid any increase in absorbance due to the color of the compounds or spontaneous hydrolysis of the substrate, the absorbance before addition of the enzyme was subtracted from the absorbance after adding the enzyme.
IC50 values of isolated compounds in AChEI and scavenging of hydroxyl radical assays were calculated using Probit Analysis (SPSS Version 16.0 for Windows, SPSS Inc., Chicago, IL, USA) for five different concentrations in three independent experiments. Cell viability was expressed as a percentage of MTT reduction, assuming that the viability of cells treated with 1% DMSO as a negative control was 100%. Figures were built in Microsoft Excel 2010. All values are the mean ± SD of three independent experiments. Data were analyzed for statistical significance using one-way ANOVA, followed by Dunnet’s test as a post-hoc test with GraphPad Prism 5.0 software for Windows (Inc., San Diego, CA, USA).

neuro-2A cells [3] = assay: Protection against H2O2-induced neurotoxicity (MTT); type: cell-based, Mouse; conditions: for Protection against H2O2: summary Table 4; for neuroprotection against H2O2-induced neurotoxicity (in words): 6.25-100 µM, H2O2 150 µM
Procedure: (§1) Neuro-2A cell line was maintained in Eagle’s Minimum Essential medium supplemented with 10% fetal bovine serum, 1% of 100× antibiotic—antimitotic agents (containing penicillin and streptomycin) in a humid atmosphere of 5% (v/v) CO2 and 95% (v/v) air at 37 °C. Neuro-2A cells were plated in 96-well cell culture plates at a density of 3 × 10^4 cells/well for H2O2 and intracellular ROS assays and 2.5 × 10^3 cells/well for the Aβ25-35-assay.
(§2) Cell viability was determined by MTT reduction assay. Briefly, after treatment with isolated compounds, the media was replaced by fresh one after washing the cells with 100 µL PBS and 20 µL of MTT (5 mg/mL) was added to each well. After 4 h incubation at 37 °C, the state of cells was checked under microscope to confirm either cytotoxicity in H2O2 and Aβ25-35 wells or protection in positive controls and isolated compounds ones. The supernatants were aspirated carefully, and 150 µL of DMSO was added to each well to dissolve the dark blue formazan crystals. The absorbance was measured using a microplate reader at 570 nm.
H2O2 interacts with metals in the medium, producing highly cytotoxic hydroxyl radicals that induce neurotoxicity. So, active compounds are those that can scavenge free radicals and increase the cell viability. This assay was performed as previously described with slight modifications. Briefly, the concentration of H2O2 that decreased cell viability to about 50% was determined as follows: cells were cultured in a 96-well plate and after 24 h were further incubated with different concentrations of H2O2 (50, 100, 150, 200 µM) freshly prepared from 30% stock solution. After 24 h, cell viability was determined using the MTT reduction method. H2O2 at a concentration of 150 µM had the desired cytotoxicity and was used for the next step.

[4] = test system: intracellular ROS in Neuro-2A cells; assay: Scavenging of intracellular reactive oxygen species (Bes-H2O2-AC, DFF fluorescence); type: cell-based, Mouse; conditions: for decrease of DFF fluorescence intensity (intracellular ROS): at 50 and 100 µM, H2O2 600 µM 30 min; for Intracellular ROS Scavenging: summary Table 4; for Intracellular ROS Scavenging: key: +: Weak activity; ++: Strong activity
Procedure: as §1
This assay was performed as previously described with some modifications. Briefly, Neuro-2A cells were seeded in 96-well Clear Fluorescence Black Plate (number 655090, Greiner Bio-one, Tokyo, Japan). Cells were treated with three different concentrations (25, 50, 100 µM) of the samples. After 2 h incubation, cells were subjected to oxidative stress using 600 µM of H2O2 for 30 min. The nucleus was stained by Hoechst 33342 (Dojindo, Kumamoto, Japan), and the amount of difluorofluorescein (DFF) released from the reaction of H2O2 and BES-H2O2-Ac was taken as an indication of the amount of intracellular H2O2 and ROS. Images of each well were acquired using an IN Cell Analyzer 1000 (GE Healthcare, Buckinghamshire, UK) using 360-nm (Hoechst 33342) and 480-nm (BES-H2O2-Ac) excitation filters and monitored through 460-nm and 535-nm emission filters, respectively. Developer software was used to analyze the images of Hoechst 33342 and BES-H2O2-Ac staining, and the resulting data were then applied to Spotfire Decision Site Client 8.2 software for visualizing the results.

neuro-2A cells [5] = assay: Protection against Aβ25-35-induced neurotoxicity (MTT); type: cell-based, Mouse; conditions: for neuroprotection against Aβ25-35 (in words): at the highest concentration (100 µM); for Protection against Aβ25-35: summary Table 4; for Protection against Aβ25-35: key: +: Weak activity; ++: Strong activity
Procedure: as §1, §2
Similarly, the concentration of Aβ25-35 that decreased cell viability to about 50% was determined. […] So, the cells were incubated with different concentrations of the isolated compounds (6.25, 12.5, 25, 50 and 100 µM) and EGCG as a positive control for 3 h followed by Aβ25-35 treatment for 72 h.

[6] = summary Table 4, read-out: AchEI IC50
[7] = Fe3+/ascorbate/EDTA/H2O2 system, read-out: IC50 hydroxyl radical scavenging, Non Site-Specific
[8] = Fe3+/ascorbate/H2O2 system without EDTA, read-out: IC50 hydroxyl radical scavenging, Site-Specific
[9] = summary Table 4 (values of the non site-specific assay), read-out: Hydroxyl Radical Scavenging/IC50
[10] = Ellman's method, read-out: IC50 in the AChEI assay

T1 sequence (O42275 24-633): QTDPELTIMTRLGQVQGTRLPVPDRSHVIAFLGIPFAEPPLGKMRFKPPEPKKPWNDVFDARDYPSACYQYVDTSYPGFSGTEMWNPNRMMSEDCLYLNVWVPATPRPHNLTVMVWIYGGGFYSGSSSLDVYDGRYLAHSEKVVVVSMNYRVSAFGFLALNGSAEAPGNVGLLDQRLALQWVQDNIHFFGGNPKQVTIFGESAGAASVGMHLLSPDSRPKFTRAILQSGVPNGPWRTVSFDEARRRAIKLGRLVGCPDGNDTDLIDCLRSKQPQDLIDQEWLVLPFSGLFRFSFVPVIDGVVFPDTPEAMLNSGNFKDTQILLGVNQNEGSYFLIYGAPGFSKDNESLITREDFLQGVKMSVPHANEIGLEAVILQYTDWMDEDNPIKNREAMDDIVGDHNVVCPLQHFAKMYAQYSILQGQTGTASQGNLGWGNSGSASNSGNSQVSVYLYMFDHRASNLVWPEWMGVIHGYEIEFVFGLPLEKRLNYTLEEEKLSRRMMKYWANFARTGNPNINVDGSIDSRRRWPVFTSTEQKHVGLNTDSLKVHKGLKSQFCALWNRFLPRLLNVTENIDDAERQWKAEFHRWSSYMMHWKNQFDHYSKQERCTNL

Compound	IC50 in the AChEI assay ([2]; Ellman's method)	IC50 [2, 6]	IC50 [1, 7]	IC50 [1, 8]	Protection against H2O2 (neuro-2A cells [3])	decrease of DFF fluorescence intensity (intracellular ROS) [4]	Intracellular ROS Scavenging [4]	further results
O=Cc1ccc(CO)o1 [5-(Hydroxymethyl)-2-furaldehyde (7), 5-(hydroxymethyl)-2-furaldehyde]	inactive	> 500 µM						% Inhibition of deoxyribose degradation, Site-Specific [1]: -; % Inhibition of deoxyribose degradation, Non Site-Specific [1]: 4 ± 0.3%
Nc1ncnc2c1ncn2[C@@H]1O[C@H](CO)[C@@H](O)[C@H]1O [Adenosine (15), adenosine]	inactive	> 500 µM						
Oc1cc(O)c2c(c1)OC(c1ccc(O)c(O)c1)C(O)C2 (centres unmarked) [Catechin (positive control), Catechin, reference compound]			473 ± 8.6 µM	534 ± 19.2 µM				
O=C(/C=C/c1ccc(O)c(O)c1)O[C@@H]1C[C@](O)(C(=O)O)C[C@@H](O)[C@H]1O [Chlorogenic acid (11), chlorogenic acid]	inactive	> 500 µM			++	significantly decrease the fluorescence intensity	++	
OO [H2O2, reference compound]								cytotoxicity of H2O2 (neuro-2A cells [3]; 150 µM H2O2, 24 h, MTT): 48.2% ± 1.8%
O=c1cc(-c2ccc(O)c(O)c2)oc2cc(O)cc(O)c12 [Luteolin (9), luteolin]		> 500 µM	753 ± 11.1 µM	980 ± 15.8 µM	++	significantly decrease the fluorescence intensity	++	neuroprotection against Aβ25-35 (in words) (neuro-2A cells [5]): significant neuroprotection (p < 0.05); Protection against Aβ25-35 (neuro-2A cells [5]): +; IC50 [1, 9]: 753 ± 11.1 µM; IC50 [2, 10]: > 500 µM; inhibition at 250 µM ([2]; at 250 µM): 30%
COC(=O)C1(O)CC(O)C(O)C(OC(=O)C=Cc2ccc(O)c(O)c2)C1 (centres unmarked) [Methyl chlorogenate (10), methyl chlorogenate]		> 500 µM	840 ± 12.4 µM	920 ± 10.9 µM	++	significantly decrease the fluorescence intensity	++	IC50 [1, 9]: 840 ± 12.4 µM; IC50 [2, 10]: > 500 µM; inhibition at 500 µM ([2]; at 500 µM): 10%
O=c1c(O)c(-c2ccc(O)c(O)c2)oc2cc(O)cc(O)c12 [Quercetin (12), quercetin]			672 ± 10.6 µM	837 ± 21.6 µM	++	significantly decrease the fluorescence intensity	++	neuroprotection against Aβ25-35 (in words) (neuro-2A cells [5]): significant neuroprotection (p < 0.05); Protection against Aβ25-35 (neuro-2A cells [5]): +; IC50 [1, 9]: 672 ± 10.6 µM
CC1(C)CCC2(C)CCC3(C)C4CC=C5C(CCC(O)C5(C)C)C4(C)CCC3(C)C2C1 (stereo not drawn) [α-Glutinol (1), α-glutinol]	inactive	> 500 µM						neuroprotection against H2O2-induced neurotoxicity (in words) (neuro-2A cells [3]): did not show significant neuroprotection
CC1(C)CC[C@]2(C)CC[C@]3(C)C(=CC[C@@H]4[C@@]5(C)CC[C@H](O)C(C)(C)[C@@H]5CC[C@]43C)[C@@H]2C1 [β-Amyrin (2), β-amyrin]	inactive	> 500 µM						neuroprotection against H2O2-induced neurotoxicity (in words) (neuro-2A cells [3]): did not show significant neuroprotection; % Inhibition of deoxyribose degradation, Site-Specific [1]: -; % Inhibition of deoxyribose degradation, Non Site-Specific [1]: -
CCC(CCC(C)C1CCC2C3CC=C4CC(OC5OC(CO)C(O)C(O)C5O)CCC4(C)C3CCC12C)C(C)C (stereo not drawn) [β-Sitosterol-3-O-glucoside (5), β-sitosterol-3-O-glucoside]	inactive	> 500 µM						
Aβ25-35: amyloid β peptide fragment used to induce neurotoxicity (GSNKGAIIGLM; Amyloid-beta protein 42; UniProt P05067 696-706, looked up, fragment) [reference compound]								cytotoxicity of Aβ25-35 (neuro-2A cells [5]; 25 µM, 72 h incubation): 55% ± 4.6%
